Data reported in US10703748B2, “Diazanaphthalen-3-yl carboxamides and preparation and use thereof” (Samumed, LLC, priority 2017, dated 2020).

Key:
[1] = system: Wnt-responsive Sp5-Luc reporter in SW480 colon carcinoma cells; test: Screening assay for Wnt activity (Sp5-Luc reporter gene assay); details: Homo sapiens; for EC50: SW480; for inhibition at 10 µM: SW480, read-out: percent inhibition at 10 μM
Protocol: The screening assay for Wnt activity is described as follows.
SW480 colon carcinoma cells were transduced with a lentiviral vector expressing luciferase with a human Sp5 promoter consisting of a sequence of eight TCF/LEF binding sites. […] These stably transduced SW480 cells were expanded in cell culture and used for all further screening activities. Each compound was dissolved in DMSO as a 10 mM stock and used to prepare compound source plates. Serial dilution (1:3, 10-point dose-response curves starting from 10 μM) and compound transfer was performed using the ECHO 550 (Labcyte, Sunnyvale, Calif.) into 384-well white solid bottom assay plates (Greiner Bio-One) with appropriate DMSO backfill for a final DMSO concentration of 0.1%. […] Following incubation, 15 μl of BriteLite Plus luminescence reagent (Perkin Elmer) was added to each well of the 384-well assay plates. The plates were placed on an orbital shaker for 2 min and then luminescence was quantified using the Envision (Perkin Elmer) plate reader.

IL-6 = IL-6 inhibition in LPS-stimulated human peripheral blood mononuclear cells (HTRF); details: Homo sapiens, PBMC; for EC50: 22 h; for inhibition at 10 µM: read-out: percentage in parentheses after EC50 >10
[2] = system: α-smooth muscle actin (aSMA) positive LL29 cells; test: Inhibition of the fibrotic process: αSMA staining in TGF-β1 treated LL29 fibroblasts from IPF patients; details: Homo sapiens, Fibroblast; for EC50: 96 h; for inhibition at 10 µM: read-out: percentage in parentheses after EC50 >10
DYRK1A kinase = DYRK1A kinase (Homo sapiens, UniProt Q13627); test: DYRK1A kinase activity (Ser/Thr 18 peptide Z-lyte FRET assay); format: biochemical; details: recombinant DYRK1A, 30 μM ATP, one hour at room temperature;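 note: kinase activity read as coumarin/fluorescein emission ratio after development step, with unphosphorylated and phosphorylated peptide forms setting 0% and 100% controls, values from dose-response curves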
GSK3β kinase = GSK3β kinase (Homo sapiens, UniProt P49841); test: GSK3β kinase activity (Ser/Thr 09 peptide Z-lyte FRET assay); format: biochemical; details: recombinant kinase, 46 μM ATP, one hour at room temperature; read-out: EC50
Sequence of GSK3β kinase (P49841 whole entry): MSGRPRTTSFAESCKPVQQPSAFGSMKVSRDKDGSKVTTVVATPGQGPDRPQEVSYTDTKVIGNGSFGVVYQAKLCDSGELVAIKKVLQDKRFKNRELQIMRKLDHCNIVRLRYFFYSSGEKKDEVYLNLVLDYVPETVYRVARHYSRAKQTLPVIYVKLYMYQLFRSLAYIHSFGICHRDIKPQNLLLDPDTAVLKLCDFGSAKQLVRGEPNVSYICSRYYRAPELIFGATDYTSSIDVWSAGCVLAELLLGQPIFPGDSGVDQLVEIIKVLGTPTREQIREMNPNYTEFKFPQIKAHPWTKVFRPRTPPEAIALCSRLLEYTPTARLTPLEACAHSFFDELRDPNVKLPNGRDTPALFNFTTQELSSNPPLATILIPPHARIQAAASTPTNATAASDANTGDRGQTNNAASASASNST

[3] = system: SW480 colon carcinoma cells; test: Cell viability assay (CellTiter-Glo); details: Homo sapiens; for EC50: SW480, 96 h; for inhibition at 10 µM: SW480, read-out: percent inhibition at 10 μM

SMILES | EC50 [1] [µM] | EC50 (IL-6) [µM] | EC50 (DYRK1A kinase) [µM] | EC50 (GSK3β kinase) [µM] | EC50 [3] [µM] | inhibition at 10 µM [1] [%] | inhibition at 10 µM (IL-6) [%] | EC50 [2] [µM] | inhibition at 10 µM [2] [%] | inhibition at 10 µM [3] [%]
Cc1ncc(-c2ccc3cnc(NC(=O)N4CCC(N5CCOCC5)CC4)nc3c2)o1 [Compound 1472, N-(7-(2-Methyloxazol-5-yl)quinazolin-2-yl)-4-morpholinopiperidine-1-carboxamide] | > 10 | > 10 | 0.246 | 2.33 | > 10 | 1.6 | 7.6 | > 10 | 33.9 | 16.7
Cc1ncc(-c2ccc3cnc(NC(=O)Cn4ccnc4)nc3c2)o1 [Compound 1495, 2-(1H-Imidazol-1-yl)-N-(7-(2-methyloxazol-5-yl)quinazolin-2-yl)acetamide] | 1.51 | > 10 | 0.113 | 0.254 | > 10 | – | 3.2 | > 10 | 48.5 | 25.5
Cc1nnc(-c2ccc3cnc(NC(=O)CN4C5CCC4COC5)nc3c2)s1 [Compound 1634, 2-(3-Oxa-8-azabicyclo[3.2.1]octan-8-yl)-N-(7-(5-methyl-1,3,4-thiadiazol-2-yl)quinazolin-2-yl)acetamide] | > 10 | > 10 | 0.342 | 0.224 | > 10 | 16.4 | 5.4 | > 10 | 18.3 | 13.7
Cc1nnc(-c2ccc3cnc(NC(=O)c4ccnc(N5CCN(C)CC5)c4)nc3c2)s1 [Compound 1656, N-(7-(5-Methyl-1,3,4-thiadiazol-2-yl)quinazolin-2-yl)-2-(4-methylpiperazin-1-yl)isonicotinamide] | 1.2 | > 10 | 0.065 | 0.34 | 2.21 | – | 6 | 1.76 | – | –
Cn1cc(-c2cnc3cnc(NC(=O)[C@H]4CCCN4)cc3c2)cn1 [Compound 2782, (R)—N-(3-(1-Methyl-1H-pyrazol-4-yl)-1,7-naphthyridin-6-yl)pyrrolidine-2-carboxamide] | > 10 | > 10 | 0.867 | 2.45 | > 10 | 2.2 | 4.3 | 2.4 | – | 18.8
CC(C(=O)Nc1cc2cc(-c3cnn(C)c3)cnc2cn1)N1CCCCC1 (centres unmarked) [Compound 2791, N-(3-(1-Methyl-1H-pyrazol-4-yl)-1,7-naphthyridin-6-yl)-2-(piperidin-1-yl) propanamide] | > 10 | > 10 | 0.513 | 3.47 | > 10 | 10.5 | 5.3 | 6.13 | – | 24.8
CN(C)Cc1ccc(C(=O)Nc2cc3cc(-c4cnn(C)c4)cnc3cn2)cc1 [Compound 2890, 4-((Dimethylamino)methyl)-N-(3-(1-methyl-1H-pyrazol-4-yl)-1,7-naphthyridin-6-yl)benzamide] | 3.58 | > 10 | 0.035 | > 10 | 3.86 | – | 8.6 | > 10 | 29.4 | –
CN1CCN(Cc2cccc(C(=O)Nc3cc4cc(-c5cnn(C)c5)cnc4cn3)c2)CC1 [Compound 2892, N-(3-(1-Methyl-1H-pyrazol-4-yl)-1,7-naphthyridin-6-yl)-3-((4-methylpiperazin-1-yl)methyl)benzamide] | > 10 | > 10 | 0.039 | > 10 | > 10 | 46.9 | 16.5 | 3.96 | – | 36
CN1CCc2ccc(C(=O)Nc3cc4cc(-c5cnn(C)c5)cnc4cn3)cc2C1 [Compound 2922, 2-Methyl-N-(3-(1-methyl-1H-pyrazol-4-yl)-1,7-naphthyridin-6-yl)-1,2,3,4-tetrahydroisoquinoline-7-carboxamide] | 2.42 | > 10 | 0.036 | > 10 | > 10 | – | 3.8 | > 10 | 47.2 | 28.8
Cn1cc(-c2cnc3cnc(NC(=O)c4ccc5nccnc5c4)cc3c2)cn1 [Compound 2936, N-(3-(1-Methyl-1H-pyrazol-4-yl)-1,7-naphthyridin-6-yl)quinoxaline-6-carboxamide] | > 10 | > 10 | > 10 | > 10 | > 10 | 11.9 | 8.3 | > 10 | 21.6 | 17.8
CCN(CC)CC(=O)Nc1cc2cc(-c3cnn(C)c3CN3CCCCC3)cnc2cn1 [Compound 3003, 2-(Diethylamino)-N-(3-(1-methyl-5-(piperidin-1-ylmethyl)-1H-pyrazol-4-yl)-1,7-naphthyridin-6-yl)acetamide] | > 10 | > 10 | 0.067 | 1.52 | > 10 | 33.5 | 7.3 | > 10 | 27.8 | 35.9
CN1CCC(N(C)c2cc(C(=O)Nc3cc4cc(-c5cn(C)nn5)cnc4cn3)ccn2)CC1 [Compound 3102, 2-(Methyl(1-methylpiperidin-4-yl)amino)-N-(3-(1-methyl-1H-1,2,3-triazol-4-yl)-1,7-naphthyridin-6-yl)isonicotinamide] | > 10 | > 10 | 0.088 | > 10 | 6.91 | 28.5 | 0 | > 10 | 50 | –
Cn1cnnc1-c1cnc2cnc(NC(=O)C3CCN(CCC(F)(F)F)CC3)cc2c1 [Compound 3111, N-(3-(4-Methyl-4H-1,2,4-triazol-3-yl)-1,7-naphthyridin-6-yl)-1-(3,3,3-trifluoropropyl)piperidine-4-carboxamide] | > 10 | > 10 | 0.377 | 2.14 | > 10 | 9.7 | 7.5 | > 10 | 46.4 | 16.1

The next lines start with results.

EC50 [1] [µM] | EC50 (IL-6) [µM] | EC50 (DYRK1A kinase) [µM] | EC50 (GSK3β kinase) [µM] | EC50 [3] [µM] | SMILES | inhibition at 10 µM [1] [%] | inhibition at 10 µM (IL-6) [%] | EC50 [2] [µM] | inhibition at 10 µM [2] [%] | inhibition at 10 µM [3] [%]
> 10 | > 10 | 0.049 | > 10 | 3.88 | CN(C)CCNc1cc(C(=O)Nc2cc3cc(-c4cnn(C)c4)cnc3cn2)ccn1 [Compound 2884, 2-((2-(Dimethylamino)ethyl)amino)-N-(3-(1-methyl-1H-pyrazol-4-yl)-1,7-naphthyridin-6-yl)isonicotinamide] | 44.1 | 9.4 | 5.24 | – | –
> 10 | > 10 | 0.119 | > 10 | > 10 | Cn1ncc(-c2cnc3cnc(NC(=O)c4ccnc(N5CCOCC5)c4)cc3c2)c1CN1CCOCC1 [Compound 3034, N-(3-(1-Methyl-5-(morpholinomethyl)-1H-pyrazol-4-yl)-1,7-naphthyridin-6-yl)-2-morpholinoisonicotinamide] | 0 | 9.5 | > 10 | 31.8 | 10.5
> 10 | > 10 | 0.207 | 0.76 | > 10 | COC1CCN(CC(=O)Nc2cc3cc(-c4cn(C)nn4)cnc3cn2)CC1 [Compound 3078, 2-(4-Methoxypiperidin-1-yl)-N-(3-(1-methyl-1H-1,2,3-triazol-4-yl)-1,7-naphthyridin-6-yl)acetamide] | 11.7 | 7.9 | > 10 | 41 | 16
2.28 | > 10 | 0.269 | > 10 | > 10 | CNC(=O)c1ccc(C(=O)Nc2cc3cc(-c4cn(C)nn4)cnc3cn2)cn1 [Compound 3092, N^2-Methyl-N-(3-(1-methyl-1H-1,2,3-triazol-4-yl)-1,7-naphthyridin-6-yl) pyridine-2,5-dicarboxamide] | – | 7.4 | > 10 | 13.3 | 10.5
0.596 | > 10 | 0.119 | > 10 | 4.09 | CN(C)C1CCN(c2cc(C(=O)Nc3cc4cc(-c5cn(C)nn5)cnc4cn3)ccn2)CC1 [Compound 3096, 2-(4-(Dimethylamino)piperidin-1-yl)-N-(3-(1-methyl-1H-1,2,3-triazol-4-yl)-1,7-naphthyridin-6-yl)isonicotinamide] | – | 0 | > 10 | 32.7 | –
0.696 | > 10 | 0.154 | > 10 | > 10 | CN1CCCN(c2cc(C(=O)Nc3cc4cc(-c5cn(C)nn5)cnc4cn3)ccn2)CC1 [Compound 3099, 2-(4-Methyl-1,4-diazepan-1-yl)-N-(3-(1-methyl-1H-1,2,3-triazol-4-yl)-1,7-naphthyridin-6-yl)isonicotinamide] | – | 0 | > 10 | 44.4 | 29.6
